Assay results reported in ChEMBL document CHEMBL1141675, “QSAR modeling of the interaction of flavonoids with GABA(A) receptor” (Eur J Med Chem, 2008).

Assay: Binding affinity to GABAA receptor
Set-up: unit not given here

logKi	SMILES
-0.212	O=c1cc(-c2cccc(Cl)c2)oc2ccccc12
-0.701	O=c1cc(-c2cccc(Cl)c2)oc2ccc(F)cc12
-0.785	O=c1cc(-c2ccccc2)oc2ccc(Cl)cc12
-1.77	O=c1cc(-c2cccc(Cl)c2)oc2ccc(Br)cc12
-1.38	O=c1cc(-c2cccc(F)c2)oc2ccc(Br)cc12
-0.07	O=c1cc(-c2cccc(O)c2)oc2ccc(Cl)cc12
-1.89	Cc1ccc2oc(-c3cccc(Br)c3)cc(=O)c2c1
0	O=c1cc(-c2cccc(Br)c2)oc2ccc(O)cc12
-0.38	O=c1cc(-c2ccccc2F)oc2ccc(Cl)cc12
-0.072	COc1cccc(-c2cc(=O)c3cc(Cl)ccc3o2)c1
-0.036	O=c1cc(-c2cccc(F)c2)oc2ccc(F)cc12
-1.72	O=c1cc(-c2cccc(Br)c2)oc2ccc(Br)cc12
-2.1	O=c1cc(-c2cccc([N+](=O)[O-])c2)oc2ccc(Cl)cc12
0.653	O=c1cc(-c2ccccc2)oc2ccc(F)cc12
0.398	O=c1cc(-c2ccc(F)cc2)oc2ccc(F)cc12
-0.627	O=c1cc(-c2cccc(Br)c2)oc2ccc(F)cc12
-0.22	O=c1cc(-c2cccc(O)c2)oc2ccc(Br)cc12
0.398	COc1cccc(-c2cc(=O)c3cc(F)ccc3o2)c1
0.4	O=c1cc(-c2cccc(O)c2)oc2ccc(F)cc12
-0.742	O=c1cc(-c2ccc(F)cc2)oc2ccc(Cl)cc12
-1.64	O=c1cc(-c2cccc(Br)c2)oc2ccc(Cl)cc12
-0.745	O=c1cc(-c2cccc([N+](=O)[O-])c2)oc2ccc(F)cc12
-0.932	O=c1cc(-c2cccc(F)c2)oc2ccc(Cl)cc12
-0.682	Cc1cccc(-c2cc(=O)c3cc(C)ccc3o2)c1
0.55	O=c1cc(-c2cccc(F)c2)oc2ccccc12
-1.64	O=c1cc(-c2cccc(Cl)c2)oc2ccc(Cl)cc12
-0.812	Cc1cccc(-c2cc(=O)c3cc(Br)ccc3o2)c1

The next lines start with the compound.

SMILES	logKi
COc1cccc(-c2cc(=O)c3ccccc3o2)c1	0.38
O=c1c(O)c(-c2ccc(O)cc2)oc2cc(O)cc(O)c12	1.97
O=c1cc(-c2ccccc2O)oc2ccc3ccccc3c12	-1.57
O=c1cc(-c2ccccc2)oc2c(I)c(O)c(I)c(O)c12	0
O=c1cc(-c2cccc([N+](=O)[O-])c2)oc2ccc([N+](=O)[O-])cc12	-1.58
O=c1cc(-c2ccccc2)oc2cc(O)ccc12	0.623
Cc1ccc2oc(-c3cccc([N+](=O)[O-])c3)cc(=O)c2c1	-2.25
COc1ccc(-c2cc(=O)c3cc(Cl)ccc3o2)cc1	0.097
O=c1cc(-c2ccc(O)cc2)oc2cc(O)cc(O)c12	0.602
Cc1ccc2oc(-c3ccccc3)cc(=O)c2c1	-0.903
O=c1cc(-c2ccc(F)cc2)oc2ccccc12	0.556
COc1c(O)c(OC)c2oc(-c3ccccc3)cc(=O)c2c1O	-0.699
O=c1cc(-c2ccc(F)cc2)oc2ccc(Br)cc12	-0.939
COc1ccc(-c2cc(=O)c3cc(Br)ccc3o2)cc1	0.322
COc1cc2oc(-c3ccc(O)c(O)c3)cc(=O)c2c(O)c1OC	2.3
O=c1cc(-c2cccc(Br)c2)oc2ccccc12	-0.384
O=c1cc(-c2ccc([N+](=O)[O-])cc2)oc2ccc(Br)cc12	-0.699
COc1c(O)cc2oc(-c3ccc(O)cc3)cc(=O)c2c1O	0
COc1ccc2oc(-c3cccc(Br)c3)cc(=O)c2c1	0
O=c1cc(-c2ccc(Br)cc2)oc2ccc([N+](=O)[O-])cc12	-1.6
COc1cc2oc(-c3ccc(O)cc3)cc(=O)c2c(O)c1OC	1.36
O=c1cc(-c2ccccc2O)oc2ccccc12	-0.678
Cc1cccc(-c2cc(=O)c3ccccc3o2)c1	1
O=c1cc(-c2ccccc2)oc2c(Br)c(O)c(Br)c(O)c12	-0.155
O=c1cc(-c2cccc([N+](=O)[O-])c2)oc2ccccc12	-0.545
COc1cccc(O)c1-c1cc(=O)c2c(O)c(OC)c(OC)c(OC)c2o1	-0.444

SMILES	logKi
O=c1cc(-c2ccccc2F)oc2cc(O)cc(O)c12	0.903
COc1cccc(-c2cc(=O)c3cc(Br)ccc3o2)c1	-0.215
COc1c(O)cc2oc(-c3ccccc3)cc(=O)c2c1O	-0.051
O=c1cc(-c2cccc([N+](=O)[O-])c2)oc2ccc(Br)cc12	-3
COc1c(O)cc(O)c2c(=O)cc(-c3ccccc3)oc12	0.182
COc1c(O)c(OC)c2oc(-c3ccccc3O)cc(=O)c2c1O	-2.21
COc1ccccc1-c1cc(=O)c2ccccc2o1	1.51
COc1ccc2oc(-c3ccccc3N)cc(=O)c2c1	0.544
O=c1cc(-c2ccccc2)oc2cc(O)c(O)c(O)c12	0.747
O=c1cc(-c2ccccc2)oc2ccc([N+](=O)[O-])cc12	-0.561
O=c1cc(-c2ccccc2[N+](=O)[O-])oc2ccc(Br)cc12	-0.68
O=c1cc(-c2cccc(Br)c2)oc2ccc([N+](=O)[O-])cc12	-1.6
COc1ccc2oc(-c3ccccc3)cc(=O)c2c1	-0.066
O=c1cc(-c2ccccc2O)oc2cc(O)cc(O)c12	-1.12
O=c1cc(-c2ccccc2)oc2ccc(O)cc12	0.422
O=c1cc(-c2ccccc2)oc2ccc(Br)cc12	-1.16
COc1cc(O)c2c(=O)cc(-c3ccccc3)oc2c1	1.7
O=c1cc(-c2ccccc2F)oc2ccc(Br)cc12	-0.424
COc1ccccc1-c1cc(=O)c2cc(O)ccc2o1	0.976
O=c1cc(-c2ccccc2)oc2ccccc12	0
O=c1cc(-c2ccccc2Cl)oc2cc(O)cc(O)c12	0.903
COc1c(O)cc2oc(-c3ccccc3O)cc(=O)c2c1O	-1.42
O=c1cc(-c2ccccc2)oc2cc(O)cc(O)c12	0.477
O=c1cc(-c2ccccc2O)oc2cc(O)ccc12	-0.252
O=c1cc(-c2ccccc2O)oc2ccc(O)cc12	-1.47
